# Reference: patent US20220193124A1, “Therapeutic Agent for Flavivirus Infection” (NEOPHARMA JAPAN CO., LTD., priority 2019, published 2022)
# Like-named read-outs stand apart in the source and are kept apart here.
# Assays:
# [1] = system: Japanese encephalitis virus Nakayama strain (JEV Nakayama); test: Inhibitory effect on Japanese encephalitis virus replication in Vero cells (progeny virus titer by plaque assay); assay type: cell-based
# [2] = MTT assay, cell toxicity in non-infected cells; assay type: cell-based; conditions: African green monkey, Vero cells (non-infected); non-infected cells; treatment for 7 days; read-out: CC50 (concentration at which cell toxicity is caused to 50% of cells)
# Experimental: (§1) (1) One day before the experiment, Vero cells were inoculated in a 96-well plate and incubated at 37° C. and 5% CO2. (2) Two-fold serial dilutions of 5-ALA were prepared (˜0.8 mM) using the maintenance culture solution (MEM+1% fetal bovine serum+10 mM non-essential amino acid+1000 U/ml penicillin+100 μg/ml streptomycin+1 mM HEPES). Water was used as a negative control. Two-fold serial dilutions of lucidone were also prepared (˜160 μM) in the same manner. (3) The culture solution was removed from the plate thus prepared, and the 5-ALA solution or the lucidone solution prepared in (2) was added to the plate in a volume of 100 μl per well. Three wells were used for each condition. (4) The old culture solution was removed from the plate every 24 hours, and the fresh 5-ALA solution or lucidone solution was added to the plate, followed by culturing. (5) The cells were cultured with the 5-ALA solution for 2, 4, or 7 days or with the lucidone solution for 7 days, and then rinsed with PBS twice. An MTT solution in a volume of 100 μl was added to the cells, and the cells were cultured at 37° C. and 5% CO2 for 3 hours. The MTT solution in use was prepared by dissolving thiazolyl blue tetrazolium bromide in a mixture containing equal volumes of 2×MEM and sterile water (10 mg/ml) and sterilizing the resulting mixture by filtration (prepared before use). (6) The culture solution was removed from the plate, and isopropyl alcohol in a volume of 100 μl was added to the plate, and the plate was subject to shaking at room temperature for about 5 minutes. (7) The absorbance at 570 nm was measured, and the relative absorbance was calculated as a percentage with respect to the absorbance in the well of 0 mM treatment.
# Vero cells = test: MTT assay, cell toxicity in non-infected cells; assay type: cell-based
# Experimental: as §1
# [3] = system: dengue virus type-1 Mochizuki strain (DENV1); test: Inhibitory effect on dengue virus type-1 replication in Vero cells; assay type: cell-based
# Experimental: (1) One day before infection (Day 0), Vero cells were seeded in a 24-well plate and incubated at 37° C. and 5% CO2. A culture solution was MEM+10% fetal bovine serum+10 mM non-essential amino acid+1000 U/ml penicillin+100 μg/ml streptomycin. In an experiment in which the treatment with the agent was performed before infection, the agent to be examined was added to the culture solution at this point. In all experiments, 5-aminolevulinic acid hydrochloride was used as 5-ALA, sodium ferrous citrate (SFC) was used as an iron-containing compound, 300 μM ribavirin or lucidone of various concentrations was used as a positive control, and water was used as a negative control. […] After the viruses were adsorbed to the cells for 1 hour, the cells were rinsed with phosphate-buffered saline (PBS) to completely remove the inoculation liquid. A maintenance culture solution (MEM+1% fetal bovine serum+10 mM non-essential amino acid+1000 U/ml penicillin+100 μg/ml streptomycin+1 mM HEPES) in a volume of 1 ml was added to the plate, and the cells were cultured at 37° C. and 5% CO2. In an experiment in which the agent was added concurrently with infection, the agent to be examined was added to the maintenance culture solution at this point. (3) After 24 hours (Day 2), the culture solution was recovered from the plate and a fresh maintenance culture solution in a volume of 1 ml was added to the plate, and the cells were cultured at 37° C. and 5% CO2. In an experiment in which the agent was added after infection, the agent to be examined was added at predetermined time points after infection. The recovered culture solution was subjected to centrifugation at 3000 rpm for 5 minutes and the resulting supernatant was frozen and stored. […]
# (1) One day before the experiment, Vero cells were inoculated in a 24-well plate and incubated at 37° C. and 5% CO2. […] The crystal violet solution was removed from the plate, and, after rinsing with water and drying, the number of plaques was counted. The viral titer in the culture solution was calculated based on the number of plaques. […]
# [4] = system: dengue virus type-3 CH53489 strain (DENV3); test: Inhibitory effect on dengue virus type-3 replication in Vero cells; assay type: cell-based
# Experimental: (§2) (1) One day before infection (Day 0), Vero cells were seeded in a 24-well plate and incubated at 37° C. and 5% CO2. A culture solution was MEM+10% fetal bovine serum+10 mM non-essential amino acid+1000 U/ml penicillin+100 μg/ml streptomycin. In an experiment in which the treatment with the agent was performed before infection, the agent to be examined was added to the culture solution at this point. In all experiments, 5-aminolevulinic acid hydrochloride was used as 5-ALA, sodium ferrous citrate (SFC) was used as an iron-containing compound, 300 μM ribavirin or lucidone of various concentrations was used as a positive control, and water was used as a negative control. […] After the viruses were adsorbed to the cells for 1 hour, the cells were rinsed with phosphate-buffered saline (PBS) to completely remove the inoculation liquid. A maintenance culture solution (MEM+1% fetal bovine serum+10 mM non-essential amino acid+1000 U/ml penicillin+100 μg/ml streptomycin+1 mM HEPES) in a volume of 1 ml was added to the plate, and the cells were cultured at 37° C. and 5% CO2. In an experiment in which the agent was added concurrently with infection, the agent to be examined was added to the maintenance culture solution at this point. (3) After 24 hours (Day 2), the culture solution was recovered from the plate and a fresh maintenance culture solution in a volume of 1 ml was added to the plate, and the cells were cultured at 37° C. and 5% CO2. In an experiment in which the agent was added after infection, the agent to be examined was added at predetermined time points after infection. The recovered culture solution was subjected to centrifugation at 3000 rpm for 5 minutes and the resulting supernatant was frozen and stored. (4) Thereafter, recovering and supplying of the culture solution was repeated every 24 hours. It is of note that the infection experiments were performed using 2 wells for all conditions.
# (§3) (1) One day before the experiment, Vero cells were inoculated in a 24-well plate and incubated at 37° C. and 5% CO2. (2) Samples for titer measurement were thawed and ten-fold serial dilutions of the samples were prepared using the maintenance culture solution. (3) The culture solution was removed from the plate thus prepared, and the serial dilutions prepared in procedure (2) were each inoculated in a volume of 200 μl. After adsorption for 1 hour, the inoculation liquid was removed from the plate, and 1% methyl cellulose (MEM+1% methyl cellulose+1% fetal bovine serum) in a volume of 1 ml was added to the plate. […] The crystal violet solution was removed from the plate, and, after rinsing with water and drying, the number of plaques was counted. The viral titer in the culture solution was calculated based on the number of plaques. […]
# [5] = system: dengue virus type-4 TVP360 strain (DENV4); test: Inhibitory effect on dengue virus type-4 replication in Vero cells; assay type: cell-based
# Experimental: as §2, §3
# [6] = system: Zika virus PRVABC59 strain (ZKV); test: Inhibitory effect on Zika virus replication in Vero cells; assay type: cell-based
# Experimental: as §2, §3
# flavivirus = test: Difference in concentrations for exhibiting cell toxicity and drug efficacy (therapeutic window)
# Text: As one of action mechanisms of the anti-dengue virus activity of lucidone, an increase in HO-1 in cells is known.
# heme oxygenase-1 (HO-1) = conditions: Non-Patent Literatures 11, 13, 14, 15; cited from earlier work
# dengue virus = conditions: Non-Patent Literatures 9 to 11; cited from earlier work
# Zika virus = conditions: Non-Patent Literatures 7 and 8, cited from earlier work
# [7] = system: Japanese encephalitis virus; conditions: Non-Patent Literature 6; cited from earlier work
compound,measurement,setting,value
"Cl.NCC(=O)CCC(=O)O [5-ALA, 5-aminolevulinic acid hydrochloride]",inhibitory effect on Japanese encephalitis virus replication,"[1]; 0.05 mM, treatment for 7 days after infection, FIG. 7",exhibited
same,inhibitory effect on Japanese encephalitis virus replication,"[1]; 0.2 mM, treatment for 2 days after infection, FIG. 11",exhibited
same,inhibitory effect on Japanese encephalitis virus replication,"[1]; 0.2 mM, treatment for 4 days after infection, FIG. 10",exhibited
same,inhibitory effect on Japanese encephalitis virus replication,"[1]; 0.2 mM, treatment for 7 days after infection, FIG. 7",exhibited
same,"inhibitory effect on Japanese encephalitis virus replication, 5-ALA compared with low dose lucidone","[1]; 5-ALA 0.2 mM vs lucidone 10 μM and 2.5 μM, 7 days after infection, FIG. 20",stronger inhibitory effect on the Japanese encephalitis virus replication than 10 μM and 2.5 μM of lucidone
same,inhibitory effect on Japanese encephalitis virus replication compared with ribavirin,"[1]; 5-ALA 0.2 mM vs ribavirin 300 μM, 7 days after infection, FIG. 7",stronger than the effect of ribavirin (300 μM)
same,"duration of inhibitory effect on Japanese encephalitis virus after removal, compared with dengue virus","[1]; 1 day treatment after infection, vs Example 4",lasted longer than in the case of the dengue virus
same,"inhibitory effect on Japanese encephalitis virus replication, treatment for 4 days and 2 days compared with 7 days","[1]; FIG. 7, FIG. 10, FIG. 11",less inhibitory effect
same,inhibitory effect on Japanese encephalitis virus replication when the agent was removed from the culture solution,[1]; after removal of the agent,lost with the lapse of time
same,appearance of virus resistant to the agent,"[1]; continuous treatment 7 days, compared with ribavirin, FIG. 7",delays the appearance of the virus resistant to the agent more than ribavirin
same,dose-dependent inhibitory effect on Japanese encephalitis virus replication,"[1]; treatment after infection for 1 day (Day 2), 0.05 mM to 1 mM, FIG. 5",exhibited the dose-dependent inhibitory effect
same,CC50 at 7 days,[2],> 800 µM
same,cell toxicity,"Vero cells; non-infected cells, 5-ALA solution for 2, 4 or 7 days, up to 0.8 mM, FIGS. 12-14",observed in the non-infected cells in a dose-dependent manner
same,inhibitory effect on dengue virus type-1,"[3]; 0.2 mM, treatment for 7 days after infection, FIG. 22",exhibited up to Day 9
same,inhibitory effect on dengue virus type-1 replication compared with ribavirin,"[3]; 5-ALA 0.2 mM vs ribavirin 300 μM, FIG. 22",stronger than the effect of ribavirin (300 μM)
same,inhibitory effect on dengue virus type-1 when the agent was removed from the culture solution,[3]; after removal of the agent,lost with the lapse of time
same,inhibitory effect on dengue virus type-3 replication on Day 8,"[4]; 0.2 mM, Day 8",decreased
same,inhibitory effect on dengue virus type-3,"[4]; 0.2 mM, treatment for 7 days after infection, FIG. 23",exhibited up to Day 7
same,inhibitory effect on dengue virus type-3 replication compared with ribavirin,"[4]; 5-ALA 0.2 mM vs ribavirin 300 μM, FIG. 23",stronger than the effect of ribavirin (300 μM)
same,inhibitory effect on dengue virus type-4 replication on Day 8,"[5]; 0.2 mM, Day 8",decreased
same,inhibitory effect on dengue virus type-4,"[5]; 0.2 mM, treatment for 7 days after infection, FIG. 24",exhibited up to Day 7
same,inhibitory effect after Day 9,"[6]; 0.2 mM, after Day 9",decreased
same,inhibitory effect on Zika virus,"[6]; 0.2 mM, treatment for 7 days after infection, FIG. 25",exhibited up to Day 8
same,inhibitory effect on Zika virus replication compared with ribavirin,"[6]; 5-ALA 0.2 mM vs ribavirin 300 μM, FIG. 25","stronger than the effect of ribavirin (300 μM) on Day 5, Day 6, and Day 8"
same,concentration required for causing the cell toxicity,flavivirus; higher than 0.8 mM not examined,at least 0.8 mM
same,concentration at which anti-flavivirus activity is confirmed,flavivirus; summary of Examples,≥ 0.2 mM
same,heme oxygenase-1 (HO-1) in cells,heme oxygenase-1 (HO-1),induces expression of HO-1
"COC1=CC(=O)C(=C(O)/C=C/c2ccccc2)C1=O [lucidone, reference compound]","inhibitory effect on Japanese encephalitis virus replication, lucidone compared with 5-ALA","[1]; lucidone 40 μM vs 5-ALA 0.2 mM, 7 days after infection, FIG. 17",stronger inhibitory effect on the Japanese encephalitis virus replication than 0.2 mM 5-ALA
same,cell toxicity at 40 μM,"Vero cells; cells not infected with the flavivirus, 40 μM, 7 days",did not cause the cell toxicity
same,cell toxicity,"Vero cells; non-infected cells, lucidone for 7 days, up to 160 μM, FIG. 15",observed in a dose-dependent manner
same,CC50,"Vero cells; non-infected cells, treatment for 7 days, read-out: CC50 (concentration at which cell toxicity is caused to 50% of cells)",> 60 µM
same,concentration at which anti-flavivirus activity is confirmed,flavivirus; summary of Examples,0.04 mM
same,concentration at which cell toxicity is confirmed,flavivirus; summary of Examples,40 µM
same,replication of dengue virus,dengue virus,suppress replication
same,heme oxygenase-1 (HO-1) in cells,heme oxygenase-1 (HO-1),increases HO-1 in cells
O=C(Nc1ccc([N+](=O)[O-])cc1Cl)c1cc(Cl)ccc1O [niclosamide],replication of Zika virus,Zika virus,suppress replication
CC(=O)Oc1ccccc1C(=O)Nc1ncc([N+](=O)[O-])s1 [nitazoxanide],replication of Japanese encephalitis virus,[7],suppress replication
"NC(=O)c1ncn([C@@H]2O[C@H](CO)[C@@H](O)[C@H]2O)n1 [ribavirin, reference compound]",inhibitory effect on dengue virus type-3 replication under continuous treatment,"[4]; ribavirin 300 μM, from Day 7",reduction in the inhibitory effect
same,inhibitory effect on dengue virus type-4 replication under continuous treatment,[5]; ribavirin 300 μM,reduction in the inhibitory effect
same,"inhibitory effect on dengue virus type-4 replication, ribavirin compared with 5-ALA","[5]; ribavirin 300 μM vs 5-ALA 0.2 mM, FIG. 24",stronger than the inhibitory effect on the dengue virus replication by treatment with 5-ALA (0.2 mM)
same,inhibitory effect on Zika virus replication under continuous treatment,[6]; ribavirin 300 μM,reduction in the inhibitory effect
same,replication of dengue virus,dengue virus,suppress replication
Hemin,replication of Zika virus,Zika virus,suppress replication of Zika virus in vitro
same,replication of Zika virus,Zika virus; listed as hemin,reduces replication of Zika virus in vitro
